Patent US20150202308A1, “BUDESONIDE FORMULATION” (Nephron Pharmaceuticals Corporation, priority 2014, published 2015)

Columns and labels:
Assay type in all cases: physicochemical
[1] = Alternative beta-cyclodextrins for complexation with budesonide (% assay); conditions: for % Assay: budesonide inhalation solution 0.188 mg/mL
Method: (§1) Preparation of Lab Batches: Tared a clean/dry beaker+stir bar. Weighed and transferred Budesonide and cyclodextrin into the beaker and mixed dry to achieve uniform dispersion. Dissolved with a portion of stock buffer solution to create a saturated ionic phase and mixed for 5-20 minutes. Slowly diluted with the buffer solution and mixed for an additional 5-10 minutes. The pH of the solution was then adjusted with 1M citric acid or 1M NaOH and diluted to the final volume with purified water. While mixing, the solution was sparged with nitrogen for 30 minutes.
Alternative Beta-Cyclodextrins for Complexation: Laboratory batches of budesonide inhalation solution 0.188 mg/mL were prepared in buffer and water according to the procedure described above using 2-hydroxyethyl-B-cyclodextrin and Heptakis 2,6-Di-O-Methyl-B-cyclodextrin.

[2] = Preliminary proof of concept studies of the new complexation process
[3] = Complexation efficiency of budesonide with 2-HY-B-cyclodextrin in buffer vs. water (end point % assay); conditions: for % Assay at T = min. (amount of Budesonide complexed): 3% 2-HY-B-Cyclodextrin; for time to reach 100% complexation: determined from the data
Method: as §1
An end point analysis was conducted to evaluate the efficiency of the formulation procedure. Laboratory batches of Budesonide Inhalation Solution were prepared in 3% 2-HY-B-Cyclodextrin and assayed to evaluate the efficiency of the formulation procedure. During the second study, the rate of complexation between Budesonide and 2-HY-B-Cyclodextrin was evaluated in both Buffer and Water.
Six laboratory batches of Budesonide Inhalation Solution were prepared as described above, 3 each in buffer and water. The amount of Budesonide complexed was evaluated at 5 minutes, 8 minutes and 12 minutes for each solvent and compared to the expected concentration at the 100% level.

[4] = Filtration study of laboratory batches (assay before and after 0.22 μm filters); conditions: Budesonide with 2-hydroxypropyl-β-cyclodextrin, room temperature
Method: In this study 50 mL of 5 separate laboratory batches were filtered through PTFE, PVDF, and PES 0.22 μm filters. In the case that the complexation reaction was not completed, the filtration process would remove the un-complexed budesonide producing a significant difference between the assay values before and after filtration. For each of the lab batches tested, no significant difference between pre and post filter assay values was detected, indicating 100% complexation.

[5] = Complexation rate in buffer vs. water (filtered slurry, UV-Vis); conditions: excess Budesonide, 2 g 2-HY-B-CD in 12.5 mL concentrated buffer or water; FIG. 1
Method: To evaluate the initial association rate of Budesonide with 2-hydroxypropyl-beta-cyclodextrin, excess Budesonide was mixed with 2 g of 2-HY-B-CD in 12.5 mL of concentrated buffer solution or water. 1.0 mL of this slurry was filtered through a 0.2 syringe filter to remove un-complexed Budesonide and evaluated by UV-Vis at 2 minute intervals. A positive control prepared from filtered Budesonide Inhalation Suspension containing 0.25 mg/mL of Budesonide was used to ensure non-interference. […] This is consistent with the particle size distribution of the API which has a small percentage of Budesonide with <0.2 μm particle size diameter. This small amount of Budesonide was determined not to be significant enough to bias the results.

[6] = Minimum concentration of 2-hydroxypropyl-B-cyclodextrin for complexation (assay)
Method: Studies were conducted to determine the minimum concentration of 2-Hy-B-cyclodextrin required to achieve 100% budesonide complexation. […] To evaluate if a lower concentration may be used a study was conducted to evaluate if 100% complexation was possible at between 0.5% and 3.0% cyclodextrin. • Complexation efficiency in buffer vs. water: Traditional methods of complexation are usually carried out in water. We conducted studies to evaluate the efficiency of Budesonide-cyclodextrin complexation using a complexation solution of high ionic strength and using purified water. • Alternative Salts or Complexation: The ionic strength of the Buffer solution was calculated to be approximately 508 mol/m^−3. Two alternative salts, Sodium Chloride and Potassium Chloride, and a Phosphate buffer were prepared at the same ionic strength. Laboratory batches of budesonide inhalation solution were prepared using each alternative ionic adjuster to evaluate the effects of various salts on the formulation process. • Alternative Beta-Cyclodextrins for Complexation: […] additional Beta Cyclodextrins, 2-hydroxyethyl-B-cyclodextrin and Heptakis 2,6-Di-O-Methyl-B-cyclodextrin, were evaluated as potential alternatives for complexation with Budesonide.
as §1
Laboratory batches of budesonide inhalation Solution 0.188 mg/mL were prepared to determine the minimum concentration of 2-Hydroxypropyl-B-cyclodextrin required for an effective formulation. Each laboratory batch was prepared as per the procedure described above.

[7] = EDTA and gamma-cyclodextrin effects on formulation stability; conditions: for effect on formulation stability / effect of varying the amount on stability: 90 days at 40° C.; for effect of varying the amount on stability: varied beginning at 0.05%
Method: A study was designed to evaluate the effects of EDTA and γ-CD on the formulation stability. Both γ-CD and EDTA were varied beginning at 0.05% and tested at 30 day intervals for 90 days stored at 40° C.

[8] = budesonide at 0.188 mg/mL, in buffer

2-Hydroxyethyl-B-cyclodextrin
% Assay ([1]; 3% cyclodextrin): 66.7% | % Assay ([1]; 6% cyclodextrin): 90.3% | % Assay ([1]; 8% cyclodextrin): 96.4% | efficiency of complexation possible ([1]; within the proposed range of cyclodextrin (3%-8%)): 100%

2-Hydroxypropyl-β-cyclodextrin [HP-β-CD]
percent of HP-β-CD required [2]: < 10%

COCC1OC2OC3C(COC)OC(OC4C(COC)OC(OC5C(COC)OC(OC6C(COC)OC(OC7C(COC)OC(OC8C(COC)OC(OC1C(O)C2OC)C(OC)C8O)C(OC)C7O)C(OC)C6O)C(OC)C5O)C(OC)C4O)C(OC)C3O (stereo not drawn) [2,6-di-o-mehtyl, Heptakis 2,6-Di-O-Methyl-B-cyclodextrin]
efficiency of complexation with available budesonide [1, 8]: 100% | time to 100% efficiency of complexation [1, 8]: 3 to 5 min | % Assay ([1]; 3% cyclodextrin): 101.9%

CCCC1O[C@@H]2C[C@H]3[C@@H]4CCC5=CC(=O)C=C[C@]5(C)[C@H]4[C@@H](O)C[C@]3(C)[C@]2(C(=O)CO)O1 (stereo partly drawn) [Budesonide, 16,17-(butylidenebis(oxy))-11,21-dihydroxy-, (11-β,16-α)-pregna-1,4-diene-3,20-dione]
% Assay at T = min. (amount of Budesonide complexed) ([3]; solvent Buffer, 5 minutes, vs expected concentration at 100% level): 91.1% | % Assay at T = min. (amount of Budesonide complexed) ([3]; solvent Buffer, 8 minutes): 96.3% | % Assay at T = min. (amount of Budesonide complexed) ([3]; solvent Buffer, 12 minutes): 99.7% | % Assay at T = min. (amount of Budesonide complexed) ([3]; solvent Water, 5 minutes): 71.9% | % Assay at T = min. (amount of Budesonide complexed) ([3]; solvent Water, 8 minutes): 78.1% | % Assay at T = min. (amount of Budesonide complexed) ([3]; solvent Water, 12 minutes): 89.7% | increase in the initial complexation efficiency ([3]; batches in concentrated buffer solution over those prepared in water): ~22% | increase in efficiency ([3]; buffer vs. water, from times to 100% complexation): 180% | time to reach 100% complexation ([3]; in buffer): approximately 9 minutes | time to reach 100% complexation ([3]; in water): ~16.2 min | time to virtually 100% complexation efficiency [4]: less than 10 minutes | complexation efficiency ([4]; no organic solvents): ~100% | rate of complexation with 2-hydoxypropyl-B-cyclodextrin [5]: much higher rate in buffer than in water | minimum desirable concentration of cyclodextrin to meet the USP monograph [6]: ≥ 3.0% | Assay ([6]; 0.188 mg/mL, 0.5% cyclodextrin, molar ratio 8.4): 75.9% | Assay ([6]; 0.188 mg/mL, 1.0% cyclodextrin, molar ratio 16.8): 85.9% | Assay ([6]; 0.188 mg/mL, 1.5% cyclodextrin, molar ratio 25.2): 91.5% | Assay ([6]; 0.188 mg/mL, 2.0% cyclodextrin, molar ratio 33.6): 95.5% | Assay ([6]; 0.188 mg/mL, 2.5% cyclodextrin, molar ratio 41.9): 95.7% | complexation of Budesonide ([6]; 3.0% 2-Hydroxypropyl-B-cyclodextrin, molar ratio 50.33): 100% | complexation of Budesonide ([6]; 4% (w/v) beta-cyclodextrin, Budesonide at 0.188 mg/mL, stable): 100% | ratio of epimer A (of total content) ([6]; below 3.0% Beta-cyclodextrin, USP criterion 40%-51%): exceeded 51% | Assay ([6]; budesonide inhalation solution 0.188 mg/mL, 3.0% 2-Hydroxypropyl-B-cyclodextrin, molar ratio CD:Budesonide 50.3): 99.4%

O=C(O)CN(CCN(CC(=O)O)CC(=O)O)CC(=O)O [EDTA]
effect on formulation stability [7]: positive effect on stability | effect on growth of impurity D ([7]; previous studies): helps control the growth of impurity D | effect of varying the amount on stability [7]: no significant effects

OC[C@H]1O[C@@H]2O[C@H]3[C@H](O)[C@@H](O)[C@@H](O[C@H]4[C@H](O)[C@@H](O)[C@@H](O[C@H]5[C@H](O)[C@@H](O)[C@@H](O[C@H]6[C@H](O)[C@@H](O)[C@@H](O[C@H]7[C@H](O)[C@@H](O)[C@@H](O[C@H]8[C@H](O)[C@@H](O)[C@@H](O[C@H]9[C@H](O)[C@@H](O)[C@@H](O[C@H]1[C@H](O)[C@H]2O)O[C@@H]9CO)O[C@@H]8CO)O[C@@H]7CO)O[C@@H]6CO)O[C@@H]5CO)O[C@@H]4CO)O[C@@H]3CO [γ-CD, Gamma-cyclodextrin]
effect on formulation stability [7]: positive effect on stability | effect of varying the amount on stability [7]: no significant effects
